{"source": "patent US5283246A", "about": "“Trimetazidine compounds” (Adir et Compagnie, priority 1991, dated 1994)", "key": {"human LDLs": {"system": "human LDLs", "assay": "Modification of human LDLs by copper sulphate (lipid peroxidation, MDA production)", "assay_type": "biochemical", "details": "copper sulphate 5×10^-6 M, 24 hours; read-out: IC50, inhibition of copper-induced modification (MDA production) of human LDLs", "method": "Human LDLs are incubated for 24 hours in the presence of copper sulphate (5×10^-6 M) and in the absence or presence of the compounds tested (10^-7 M to 10^-4 M). After incubation, the peroxidation of the LDLs is evaluated by electrophoresis on agar gel and by the formation of one of the products of lipid peroxidation malonic dialdehyde (MDA), (Parthasarathy S., Young S. G., Witztum J. L., Pittman R. C. and Steinberg, D.; J. Clin. invest. 77; 641-644, 1986).\nThe activity of the tested compounds is evaluated by calculating those concentrations (IC50) that reduce the production of MDA by 50% compared with control experiments in the absence of the tested compound."}, "pigs": {"system": "pigs", "assay": "Myocardial ischaemia induced by coronary stenosis in pigs", "assay_type": "in vivo, Large White pig", "method": "The study is carried out on \"Large White\" pigs of both sexes aged 3 months and weighing 21 to 26 kg. The animals are tranquillized using midazolam (I mg/kg i.m.), then anaesthetized with sodium thiopental (8 mg/kg i.v.). The anaesthesia is maintained by a perfusion of 6 to 8 mg/kg/h. They are immediately intubated and ventilated with a mixture of air+O2. A \"T\" thoracotomy is carried out by longitudinal section of the sternum and incision between the 4th and 5th rib. The heart is suspended in a pericardial cradle made by cutting and fixing the pericardium at four points to the thoracic muscles. An electromagnetic flow ring is placed around the anterior interventricular branch of the left coronary, and a small pneumatic balloon is placed immediately downstream of that ring. This assembly is for the purpose of effecting coronary stenosis by controlling the flow. Piezoelectric crystals connected to a Triton sonomicrometer are implanted in the lower endocardium of the left ventricular wall according to a circumferential plane perpendicular to the cardiac axis. These crystals are for recording the regional myocardial contractility and endocardial ECGs in the area supplied by the stenosed coronary artery. Epicardial ECGs are also recorded in those areas by means of electrodes fixed to the myocardium. Myocardial ischaemia is effected by inflating the small balloon which induces a reduction in flow of 50 to 60 Two identical 3 minute stenoses with reproducible and reversible effects are carried out, separated by a recovery period of 55 minutes. The treatment is administered by five minutes' perfusion by the venous route 10 minutes before the stenosis perfusion of solvent before first stenosis perfusion of the compound or solvent before the second stenosis. The regional myocardial contractility is determined by the fraction of systolic shortening of the segment lengths comprised between the piezoelectric crystals. The hypokinesis in the ischaemic zone is expressed as a percentage variation in relation to the contractility measured in the control period. The modification of the epicardial and endocardial ECGs in the ischaemic zone consists in a superelevation of the segment S.T. measured in millivolts (mV)."}, "rat aorta": {"system": "rat aorta", "assay": "Study on isolated vessels: vascular relaxing effect on a rat aorta contracted by potassium (80 mM)", "design": "species or system Wistar rat", "details": "rat aorta rings without endothelium contracted by potassium (80 mM)", "method": "The thoracic aorta of Wistar rats (325-375 g) that have been anaesthetized by the intraperitoneal route with sodium pentobarbital (30 mg/kg) is removed and dissected into rings 3 mm in length; the endothelium is removed by gentle abrasion using a piece of wood. Each ring is connected to a Statham pressure sensor (UC2-Gould). The initial pressure applied is 2.5 g. The physiological solution used, maintained at 37° C., has the following composition (mM): NaCl 112; KCl 5; KH2 PO4 1; MgSO4 1.2; CaCl2 2.5; NaHCO3 25; glucose 11.; EDTA 0.026. After a stabilization period of 90 minutes, the aorta rings are subjected to a hyperpotassic medium (80 MM KCl and 37 mM NaCl). When the contraction is stable, cumulative concentrations of compound are added to the medium every 15 minutes. The relaxation values obtained enable calculation of the IC50."}, "cardiac cells": {"system": "cardiac cells", "assay": "Oxidative necrosis of cardiac cells induced by hypoxanthine/xanthine-oxidase (XO + HX)", "assay_type": "cell-based, rat (newborn)", "details": "Rattus norvegicus, 4 h", "method": "The cardiac cells of newborn rats are used between the 5th and 6th days after placing in culture. Oxidative necrosis is induced by the free radical-producing enzymatic system hypoxanthine (HX, 1 -mm) and xanthineoxidase (XO, 10 mU/ml). The necrosis is evaluated 4 hours after the addition of XO/HX by measuring by spectrophotometry the cytosolic α-hydroxybutyrate dehydrogenase (a-HBDH) activity liberated in the supernatant. The cells are treated with the test compounds 16 hours and 1 hour before the beginning of the experiment after renewing the medium. At the beginning of the experiment, the treatment is carried out again one last time.\nTable 3 lists the necrosis indices of cardiac cells induced by the hypoxanthine/xanthine-oxidase system alone or in the presence of increasing concentrations of the compounds of the invention."}, "isolated hearts of rats": {"system": "isolated hearts of rats", "assay": "Hypoxia reoxygenation on the isolated heart of a rat", "design": "species or system Wistar rat", "method": "The hearts of male Wistar rats (325-375 g--Charles River breed) anaesthetized by the intraperitoneal route with sodium pentobarbital (30 mg/kg) are removed after the injection of heparin i.v. (1 ml/kg) and rapidly perfused by the Langendorff technique at a constant pressure of 76 mmhg and stimulated electrically at 5 Hz. The isovolumetric contractions are recorded by way of a small polyethylene balloon connected to a pressure sensor (P23-Gould) introduced into the left ventricle and inflated so as to obtain a diastolic pressure of approximately 10 mmhg. The physiological solution used, maintained at 37° C., has the following composition (mM): NaCl 118; KCl 4.7; KH2 PO4 1.2; MgCl2 1.2; CaCl2 1.3; NaHCO3 25; glucose 8, pH 7.4/95% O2 +5% CO2.\nAfter a period of stabilization of from 15 to 30 minutes, the heart is subjected to hypoxia for 60 minutes (effected with 95% N2 and 5% CO2; PO2 <40 mmHg), followed by reoxygenation for 30 minutes; the compound is added to the incubation medium 15 minutes before and during the period of hypoxia."}, "[1]": {"details": "1 mg/kg intravenous before second stenosis, compared with first stenosis"}}, "data": [{"smiles": "COc1ccc(CN2CCN(CCCCCOc3cc(C)c(O)c(C)c3C)CC2)c(OC)c1OC", "note": "[Example 10, 4-(2,3,4-trimethoxybenzyl)-l-[5-(4-hydroxy-2,3,5-trimethylphenoxy)pentyl]piperazine]", "values": [{"measurement": "IC50", "setting": "human LDLs", "value": 30, "unit": "nM"}, {"measurement": "ST superelevation, endocardial ECG, second stenosis (ST2)", "setting": "pigs; 1 mg/kg i.v. before second stenosis, ST1 (solvent) of same group 3.4 ± 0.4, control ST2 2.4 ± 0.51", "value": "1.9 ± 0.5", "unit": "mV"}, {"measurement": "ST superelevation, epicardial ECG, second stenosis (ST2)", "setting": "pigs; 1 mg/kg i.v. before second stenosis, ST1 (solvent) of same group 4.6 ± 1.0, control ST2 3.16 ± 1.2", "value": "2.5 ± 0.6", "unit": "mV"}, {"measurement": "% residual myocardial contractility, second stenosis (ST2)", "setting": "pigs; 1 mg/kg i.v. before second stenosis, ST1 (solvent) of same group 20.4 ± 3.3, control ST2 25.2 ± 3.0", "value": "29.4 ± 2.6", "unit": "%"}, {"measurement": "improvement in the regional contractility in the ischaemic zone", "setting": "pigs; [1]", "value": 50, "unit": "%"}, {"measurement": "reduction of the superelevation of the segment ST, endocardial electrocardiogram", "setting": "pigs; [1]", "value": 45, "unit": "%"}, {"measurement": "reduction of the superelevation of the segment ST, epicardial electrocardiogram", "setting": "pigs; [1]", "value": 45, "unit": "%"}, {"measurement": "IC50", "setting": "rat aorta", "value": 2000, "unit": "nM"}, {"measurement": "activity at 10 µM", "setting": "cardiac cells; 10^-5 M, XO + HX, control XO + HX = 100.0, read-out: necrosis index of cardiac cells, XO + HX, compound 10^-5 M", "value": "12.6 ± 1.3", "unit": "%"}, {"measurement": "activity at 1 µM", "setting": "cardiac cells; 10^-6 M, XO + HX, control XO + HX = 100.0, read-out: necrosis index of cardiac cells, XO + HX, compound 10^-6 M", "value": "18.8 ± 3.7", "unit": "%"}, {"measurement": "activity at 0.1 µM", "setting": "cardiac cells; 10^-7 M, XO + HX, control XO + HX = 100.0, read-out: necrosis index of cardiac cells, XO + HX, compound 10^-7 M", "value": "88.8 ± 0.4", "unit": "%"}, {"measurement": "minimal effective concentration", "setting": "cardiac cells; XO + HX induced oxidative necrosis, read-out: concentration at which compounds prove to be protective against necrosis", "value": "≥ 0.1", "unit": "µM"}, {"measurement": "functional recovery of the hearts during reoxygenation", "setting": "isolated hearts of rats; Example 1 at 3×10^-7 M, 10 at 10^-7 M, 13 at 7×10^-7 M, 40% in the control experiments", "value": "more than 70%"}, {"measurement": "reduction of the developing contracture at the end of 30 minutes reoxygenation", "setting": "isolated hearts of rats; end of 30 min reoxygenation, Example 1 at 3×10^-7 M, 10 at 10^-7 M, 13 at 7×10^-7 M, vs control", "value": "more than 70%"}, {"measurement": "Contracture, hypoxia 10 min", "setting": "isolated hearts of rats; hypoxia 10 min, Example 1 at 3 × 10^-7 M, Example 10 at 10^-7 M, Example 13 at 7 × 10^-7 M, control 23.7 ± 6.8", "value": "15.3 ± 3.7", "unit": "mm Hg"}, {"measurement": "Contracture, hypoxia 30 min", "setting": "isolated hearts of rats; hypoxia 30 min, Example 1 at 3 × 10^-7 M, Example 10 at 10^-7 M, Example 13 at 7 × 10^-7 M, control 33.7 ± 8.9", "value": "16.0 ± 6.4", "unit": "mm Hg"}, {"measurement": "Contracture, hypoxia 60 min", "setting": "isolated hearts of rats; hypoxia 60 min, Example 1 at 3 × 10^-7 M, Example 10 at 10^-7 M, Example 13 at 7 × 10^-7 M, control 32.3 ± 7.4", "value": "14.7 ± 4.4", "unit": "mm Hg"}, {"measurement": "Contracture, reoxygenation 15 min", "setting": "isolated hearts of rats; reoxygenation 15 min, Example 1 at 3 × 10^-7 M, Example 10 at 10^-7 M, Example 13 at 7 × 10^-7 M, control 20.6 ± 7.8", "value": "7.3 ± 5.5", "unit": "mm Hg"}, {"measurement": "Contracture, reoxygenation 30 min", "setting": "isolated hearts of rats; reoxygenation 30 min, Example 1 at 3 × 10^-7 M, Example 10 at 10^-7 M, Example 13 at 7 × 10^-7 M, control 12.3 ± 6.1", "value": "2.7 ± 2.7", "unit": "mm Hg"}]}]}
